For assay [1], the target named is T1, ferroportin (Fpn) (Mus musculus, UniProt Q9JHI9).
T1 construct: host or cells: J774 mouse macrophage cell line, Fe(III)-NTA induced
T1 sequence (Q9JHI9 1-570): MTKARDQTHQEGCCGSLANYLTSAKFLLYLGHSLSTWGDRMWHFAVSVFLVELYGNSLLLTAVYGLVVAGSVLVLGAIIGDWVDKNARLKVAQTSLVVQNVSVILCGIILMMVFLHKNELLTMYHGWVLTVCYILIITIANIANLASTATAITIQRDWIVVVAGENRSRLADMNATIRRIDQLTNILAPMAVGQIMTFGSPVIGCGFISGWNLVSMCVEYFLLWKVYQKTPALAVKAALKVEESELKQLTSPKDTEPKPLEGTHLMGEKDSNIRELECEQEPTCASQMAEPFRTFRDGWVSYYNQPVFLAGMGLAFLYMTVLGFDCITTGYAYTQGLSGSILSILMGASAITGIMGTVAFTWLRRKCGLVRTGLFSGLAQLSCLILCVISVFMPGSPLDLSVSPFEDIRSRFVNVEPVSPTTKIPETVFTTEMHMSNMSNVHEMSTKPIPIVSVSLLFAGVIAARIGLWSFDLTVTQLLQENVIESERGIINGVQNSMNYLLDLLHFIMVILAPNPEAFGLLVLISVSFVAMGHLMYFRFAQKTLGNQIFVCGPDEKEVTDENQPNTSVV
Briefly: Ferroportin Ubiquitination and Degradation (immunoprecipitation, Western blot). The format is cell-based. Set-up: key: + comparable to hepcidin; − no effect; +/− intermediate effect. The following applies: J774 cells; visual inspection of Western blots; concentration per compound ca. 10-fold J774 IC50. Here is the method:
Exposure of cells expressing ferroportin (Fpn) to hepcidin is known to trigger ubiquitination aid subsequent internalization and degradation of Fpn (Qiao, 2012). The potential of Fpn inhibitors to induce Fpn ubiquitination and degradation was investigated with an immunoprecipitation assay using the J774 mouse macrophage cell line which expresses Fpn upon treatment with iron.
Cells were incubated with synthetic human hepcidin (Bachem, Cat. H-5926) or Fpn inhibitor compounds for 10 min or 120 min. Cells were washed and lysed witi ice-cold lysis buffer (Pierce, Life Technoligies, Cat. 87787) including 1× HALT protease inhibitor cocktail (Life technologies, Cat. 78429) and 10 mM iodoacetamide (Sigma, Cat. 16125) to stabilize ubiquitinated proteins. Immunoprecipitation was done using the Pierce Classic IP Kit (Life Technologies, Cat. 26146) following the manufacturer's protocol. Briefly, 2 mg protein in 1.25 ml IP lysis buffer was incubated by mixing for 1 h at 4° C. with control agarose beads to pre-clear the lysate and reduce nonspecific signal. Unbound lysate was then incubated overnight with 12 μg per reaction of the affinity purified anti-Fpn antibody F308 that was raised against a GST fusion protein of mouse Fpn amino acids 224308. Immune complexes were captured by pipetting 14 μl settled Pierce Protein A/G Plus Agarose beads (Life Technologies, Cat. 20423) per reaction and the slurry was incubated for 1.5 h at 4° C. with gentle end-over-end mixing. The beads were washed and immune complexes were eluted directly with 75 μl SDS NuPAGE LDS sample buffer (Life Technologies, Cat. NP0007) containing DTT (Life Technologies, Cat. NP0009). After immunoprecipitation samples were analyzed by Western blotting using a rabbit anti-mouse MTP1 antiserum (Alpha Diagnostic International, Cat. MTP11-A) and a mouse anti-mono- and polyubiquitinylated conjugates monoclonal antibody (Enzo Lifesciences, Cat. BML-PW8810) for detection of ferroportin and ubiquitin, respectively. Mouse monoclonal anti-rabbit IgG light chain (Abcam, Cat. ab99697) and anti-mouse IgG H&L (Abcam, Cat. ab6789) HRP conjugates were used as secondary antibodies.
A selection of eleven Fpn inhibitors were tested in this assay and compared to hepcidin.
J774 cells were incubated overnight with Fe(III)-NTA to induce expression of Fpn. […] Mock treated cells were harvested after 120 min (Control).
On the technique in general: A western blot detects proteins with antibodies after separation by electrophoresis.

Assay [2] relates to Hbb th3/+ mice. Briefly: Improvement of anemia, ineffective erythropoiesis and iron overload in a mouse model of β-thalassemia intermedia. The assay is classed as in vivo. The following applies: for Correction of anemia at day 20-48 (hemoglobin, difference to vehicle control) / Decrease in 58Fe spleen iron content / Decrease in blood reticulocyte counts / Decrease in leukocyte counts / Decrease in serum erythropoietin / Increase in blood erythrocyte counts / Increase in hematocrit / Prevention of liver 58Fe loading: 27 days (127) or 46 days (40); for Decrease in serum iron: Hbb th3/+ mice, % change to vehicle control. As for the experimental part: The efficacy of Fpn inhibitors was investigated using a mouse model of transfusion-independent β-thalassemia. Mice with heterozygous deletion of β1 and β2 globin genes (called Hbb th3/+ mice) develop transfusion-independent anemia, ineffective erythropoiesis, splenomegaly and secondary iron overload in spleen, liver and kidneys. […] Hbb th3/+ mice were dosed twice daily with either compound at 20 or 60 mg/kg or with methylcellulose (10 ml/kg, Sigma, Cat. 274429) as a vehicle. Between both doses mice had access to drinking water supplemented with 1 mM ^58Fe(II)-sulfate (Vifor Pharma, Batch No. ROR 3096) and 10 mM ascorbic acid (Sigma, Cat. 795437) for 6 h. […] Water without ^58Fe(II)-Sulfate and ascorbic acid was provided during the remaining 18 h. Dosing of Fpn inhibitors or vehicle followed by exposure to iron-containing water was repeated for 20 to 46 days in individual experiments.
Additional hematologic parameters were measured in terminal blood using automated blood cell analyzer.
The inefficient erythropoiesis of Hbb th3/+ mice causes excessive proliferation of erythroid precursors in spleen, leading to splenomegaly.
Elevated erythropoietin levels in Hbb th3/+ mice hduced overexpression of erythroferrone, an erythroid regulator hormone known to suppress hepcidin (Kautz L. et al, Nat. Genet., 2014). […] Erythroferrone is produced by erythrocyte precursors proliferating massively in spleens of Hbb th3/+ mice as a consequence of extramedullar erythropoiesis.
Increased iron demand due to inefficient erythropoiesis and chronically low hepcidin levels in patients with thalassemia causes organ iron loading and associated morbidities, such as hepatocellular carcinoma and heart failure (Rivella S. Haematologica, 2015). Hbb th3/+ mice absorb excessive amounts of iron as a consequence of inadequately low hepcidin levels relative to the high iron content in liver, spleen and kidney and increased ferroportin expression in duodenum (Gardenghi S., Blood, 2007).
Additionally, reactive oxygen species (ROS) were detected in bone marrow cells using a fluorescent indicator, CM-H2DCFDA (Thermo Fisher Scientific, Cat. C6827).

Here are results for three compounds from patent US10738041B2, “Ferroportin inhibitors” (Vifor (International) AG, priority 2015, dated 2020).

In the case of `O=C(NCc1ncccc1F)c1coc(CCNCc2nc3ccccc3[nH]2)n1` [Example 126], in assay [1], the “Fpn Degradation (120 min.)” value is listed as “+” and the “Fpn Ubiquitination (10 min.)” value is recorded as “+/−”.

Regarding `O=C(NCc1ncccc1F)c1coc(CCNCCc2nc3ccccc3[nH]2)n1` [Example 127], the “Decrease in RDW” value in assay [2] (20 mg/kg twice daily, 27 days (127)) is listed as 19%. In assay [2] (20 mg/kg twice daily), the “Correction of anemia at day 20-48 (hemoglobin, difference to vehicle control)” value was determined as 12 g/L; the “Decrease in 58Fe spleen iron content” value is 43%; the “Decrease in blood reticulocyte counts” value came out at 16%; the “Decrease in leukocyte counts” value was determined as 46%. In assay [2] (20 mg/kg twice daily), the “Decrease in serum erythropoietin” value amounted to 32%, the “Increase in blood erythrocyte counts” value is 0%, the Increase in hematocrit came out at 3% and the “Prevention of liver 58Fe loading” value came out at 39%. In addition, the “Decrease in serum iron” value in assay [2] (20 mg/kg) is given as 68%. Moreover, the “Decrease in RDW” value in assay [2] (60 mg/kg twice daily, 27 days (127)) worked out at 25%. In assay [2] (60 mg/kg twice daily), the “Correction of anemia at day 20-48 (hemoglobin, difference to vehicle control)” value stood at 20 g/L; the “Decrease in 58Fe spleen iron content” value is 68%; the “Decrease in blood reticulocyte counts” value turned out to be 61%; the “Decrease in leukocyte counts” value was found to be 66%. Further, in assay [2] (60 mg/kg twice daily), the “Decrease in serum erythropoietin” value is recorded as 33%, the “Increase in blood erythrocyte counts” value is 36%, the Increase in hematocrit amounted to 20% and the “Prevention of liver 58Fe loading” value turned out to be 59%. In addition, the “Decrease in serum iron” value in assay [2] (60 mg/kg) is recorded as 81%. Moreover, in assay [2] (second value of the cell (60 mg/kg) twice daily, 27 days (127)), the “Decreased in ROS in bone marrow erythrocytes” value was “NA/75%”.

For the compound `CC[C@H](C)[C@@H]1NC(=O)[C@@H](NC(=O)[C@@H](NC(=O)[C@@H]2CCCN2C(=O)[C@H](Cc2ccccc2)NC(=O)[C@H](Cc2c[nH]cn2)NC(=O)[C@@H](NC(=O)[C@@H](N)CC(=O)O)[C@@H](C)O)[C@@H](C)CC)CSSC[C@@H](C(=O)N[C@@H](CCCCN)C(=O)N[C@H](C(=O)O)[C@@H](C)O)NC(=O)[C@@H]2CSSC[C@@H]3NC(=O)[C@@H]4CSSC[C@H](NC(=O)[C@H](Cc5ccccc5)NC1=O)C(=O)N[C@@H](CSSC[C@H](NC(=O)[C@H](CCCCN)NC(=O)[C@H](CO)NC(=O)[C@H](CCCNC(=N)N)NC(=O)[C@H](Cc1c[nH]cn1)NC3=O)C(=O)NCC(=O)N[C@@H](CCSC)C(=O)N2)C(=O)NCC(=O)N4` [hepcidin, reference compound], in assay [1], the “Fpn Degradation (120 min.)” value is recorded as “+” and the “Fpn Ubiquitination (10 min.)” value was “+”.
